Assay results: US20230192700A1, “PYRAZOLOPYRAZINES ACTING ON CANCERS VIA INHIBITION OF CDK12” (Bayer Aktiengesellschaft, priority 2020, published 2023)

What was measured:
CYCLIN K = biological target: T1, CYCLIN K (Homo sapiens, UniProt O75909); test: CYCLIN K nuclear protein level: immunofluorescence/high content analysis in CAL-120 cells; format: cell-based; settings: 24 h, nuclear CCNK staining intensity, median, read-out: CYCLIN K degradation IF, DC50- [mol/l] (median)
T1 construct: endogenous in cells; host or cells: CAL-120 human breast cancer cells (DSMZ ACC 459)
Procedure: 7. CYCLIN K Nuclear Protein Level: Immunofluorescence/High Content Analysis
In the context of the present invention, the term “DC50 Cyclin K” refers to the DC50 values obtained according to the assay described in this section (7) herein below, i.e. the DC50 values for the degradation of Cyclin K.
(§1) CAL-120 human breast cancer cells (DSMZ ACC 459) are seeded in 1536-well microtiter plates (800 cells per well) containing 50 nanoL of compounds in Dose-Response. Control wells received DMSO or Reference Example 1. Plates are then incubated for 24 h at 37° C. in an humidified incubator and fixed with 4% PFA for 10 min. Then immunofluorescence (IF) against CYCLIN K (ThermoFisher Scientific CCNK Antibody # PA5-85020, rabbit, 1:200 dilution) is performed using standard IF protocols. Cells are then stained with Hoechst 33342 (Life Technologies, H-1399, 0.1 microg/mL) and imaged on an automated confocal microscopy system (e.g. Perkin Elmer Opera Phenix). Nuclear and cytoplasmic intensity as well as the nuclear/cytoplasmic intensity ratio is determined by automated image analysis using custom generated scripts (MetaXpress). Data is then transferred to Genedata Screener software, normalized to DMSO and control and DC50 values (degrading concentration to achieve 50% reduction of nuclear CCNK staining intensity relative to controls) are reported.

CDK12/CyclinK = biological target: T2, CDK12/CyclinK (Homo sapiens, UniProt Q9NYV4); test: CDK12/CycK high ATP kinase assay (TR-FRET); format: biochemical; settings: 2 mM ATP (high ATP); median; read-out: CDK12/CyclinK, 2 mM ATP (high ATP), IC50 - [mol/l] (median)
T2 construct: His-CDK12 (aa Q696-S1082); made in house; host or cells: Hi-5 insect cells (baculovirus co-infection with CycK and yeast CAK1)
Description: 2.2 CDK12/CycK high ATP Kinase Assay
In the context of the present invention, the term “IC50 CDK12 hATP” refers to the ICso values obtained according to the assay described in this section (2.2) herein below, i.e. the IC50 values for the inhibition of CDK12 at high ATP.
CDK12/CycK -inhibitory activity of compounds of the present invention at 2 millimol/L adenosine-tri-phosphate (ATP) was quantified employing the TR-FRET (TR-FRET=Time Resolved Fluorescence Energy Transfer) based CDK12/CycK activity inhibition assay as described in the following paragraphs.
A complex of human recombinant CDK12 and human recombinant CycK (both N-terminally His-tagged, expression and purification as described above) was used as enzyme. As substrate for the kinase reaction biotinylated peptide biotin-Ahx-KFELLPTPPLSPSRRSGL (C-terminus in amid form) was used which can be purchased e.g. form the company Biosyntan (Berlin-Buch, Germany).
For the assay 50 nanoL of a 100 fold concentrated solution of the test compound in DMSO was pipetted into either a black low volume 384 well microtiter plate or a black 1536 well microtiter plate (both Greiner Bio-One, Frickenhausen, Germany), 2 microL of a solution of CDK12/CycK in aqueous assay buffer [25 millimol/L HEPES pH 7.5, 20 millimol/L MgCl2, 5 millimol/L β-glycerophosphate, 2 millimol/L EGTA, 1.0 millimol/L dithiothreitol, 0.01% (v/v) Nonidet-P40 (Sigma), 0.01% (w/v) bovine serum albumin] were added and the mixture was incubated for 15 min at 22° C. to allow pre-binding of the test compounds to the enzyme before the start of the kinase reaction. Then the kinase reaction was started by the addition of 3 microL of a solution ATP (3.33 millimol/L=>final conc. in the 5 microL assay volume is 2 millimol/L) and substrate (1.67 micromol/L=>final conc. in the 5 microL assay volume is 1 micromol/L) in assay buffer and the resulting mixture was incubated for a reaction time of 60 min at 22° C. The concentration of CDK12/CycK was adjusted depending of the activity of the enzyme lot and was chosen appropriate to have the assay in the linear range, typical concentrations were about 0.75 nanomol/L. The reaction was stopped by the addition of 3 microL of a solution of TR-FRET detection reagents (125 nanomol/L streptavidine-XL665 [Cisbio Bioassays, Codolet, France] and 0.67 nanomol/L anti-Phospho-c-Myc (Ser 62) (E1J4K)-antibody from Cell Signalling [#13748] and 2 nanomol/L LANCE EU-W1024 labeled anti-rabbit IgG antibody [Perkin-Elmer, product no. 0083]) in an aqueous EDTA-solution (133 millimol/L EDTA, 0.27% (w/v) bovine serum albumin in 66.7 millimol/L HEPES pH 7.5).
The resulting mixture was incubated 1 h at 22° C. to allow the formation of complex between the phosphorylated biotinylated peptide and the detection reagents. Subsequently the amount of phosphorylated substrate was evaluated by measurement of the resonance energy transfer from the Eu-chelate to the streptavidine-XL. Therefore, the fluorescence emissions at 620 nm and 665 nm after excitation at 350 nm was measured in a TR-FRET reader, e.g. a Pherastar FS (BMG Labtechnologies, Offenburg, Germany) or a Viewlux (Perkin-Elmer). The ratio of the emissions at 665 nm and at […] was taken as the measure for the amount of phosphorylated substrate. The data were normalised (enzyme reaction without inhibitor=0% inhibition, all other assay components but no enzyme=100% inhibition).

CDK12 = biological target: T3, CDK12 (Homo sapiens, UniProt Q9NYV4); test: CDK12 nuclear protein level: immunofluorescence/high content analysis in CAL-120 cells; format: cell-based
T3 construct: endogenous in cells; host or cells: CAL-120 human breast cancer cells (DSMZ ACC 459)
Procedure: 6. CDK12 Nuclear Protein Level: Immunofluorescence/High Content Analysis
In the context of the present invention, the term “DC50 CDK12” refers to the DC50 values obtained according to the assay described in this section (6) herein below, i.e. the DC50 values for the degradation of CDK12.:
as §1, with “CDK12 (CellSignalling CDK12” for “CYCLIN K (ThermoFisher Scientific CCNK”, “#11973,” for “# PA5-85020,”, “1:100” for “1:200”, “CDK12” for “CCNK”

T3 sequence (Q9NYV4 whole entry): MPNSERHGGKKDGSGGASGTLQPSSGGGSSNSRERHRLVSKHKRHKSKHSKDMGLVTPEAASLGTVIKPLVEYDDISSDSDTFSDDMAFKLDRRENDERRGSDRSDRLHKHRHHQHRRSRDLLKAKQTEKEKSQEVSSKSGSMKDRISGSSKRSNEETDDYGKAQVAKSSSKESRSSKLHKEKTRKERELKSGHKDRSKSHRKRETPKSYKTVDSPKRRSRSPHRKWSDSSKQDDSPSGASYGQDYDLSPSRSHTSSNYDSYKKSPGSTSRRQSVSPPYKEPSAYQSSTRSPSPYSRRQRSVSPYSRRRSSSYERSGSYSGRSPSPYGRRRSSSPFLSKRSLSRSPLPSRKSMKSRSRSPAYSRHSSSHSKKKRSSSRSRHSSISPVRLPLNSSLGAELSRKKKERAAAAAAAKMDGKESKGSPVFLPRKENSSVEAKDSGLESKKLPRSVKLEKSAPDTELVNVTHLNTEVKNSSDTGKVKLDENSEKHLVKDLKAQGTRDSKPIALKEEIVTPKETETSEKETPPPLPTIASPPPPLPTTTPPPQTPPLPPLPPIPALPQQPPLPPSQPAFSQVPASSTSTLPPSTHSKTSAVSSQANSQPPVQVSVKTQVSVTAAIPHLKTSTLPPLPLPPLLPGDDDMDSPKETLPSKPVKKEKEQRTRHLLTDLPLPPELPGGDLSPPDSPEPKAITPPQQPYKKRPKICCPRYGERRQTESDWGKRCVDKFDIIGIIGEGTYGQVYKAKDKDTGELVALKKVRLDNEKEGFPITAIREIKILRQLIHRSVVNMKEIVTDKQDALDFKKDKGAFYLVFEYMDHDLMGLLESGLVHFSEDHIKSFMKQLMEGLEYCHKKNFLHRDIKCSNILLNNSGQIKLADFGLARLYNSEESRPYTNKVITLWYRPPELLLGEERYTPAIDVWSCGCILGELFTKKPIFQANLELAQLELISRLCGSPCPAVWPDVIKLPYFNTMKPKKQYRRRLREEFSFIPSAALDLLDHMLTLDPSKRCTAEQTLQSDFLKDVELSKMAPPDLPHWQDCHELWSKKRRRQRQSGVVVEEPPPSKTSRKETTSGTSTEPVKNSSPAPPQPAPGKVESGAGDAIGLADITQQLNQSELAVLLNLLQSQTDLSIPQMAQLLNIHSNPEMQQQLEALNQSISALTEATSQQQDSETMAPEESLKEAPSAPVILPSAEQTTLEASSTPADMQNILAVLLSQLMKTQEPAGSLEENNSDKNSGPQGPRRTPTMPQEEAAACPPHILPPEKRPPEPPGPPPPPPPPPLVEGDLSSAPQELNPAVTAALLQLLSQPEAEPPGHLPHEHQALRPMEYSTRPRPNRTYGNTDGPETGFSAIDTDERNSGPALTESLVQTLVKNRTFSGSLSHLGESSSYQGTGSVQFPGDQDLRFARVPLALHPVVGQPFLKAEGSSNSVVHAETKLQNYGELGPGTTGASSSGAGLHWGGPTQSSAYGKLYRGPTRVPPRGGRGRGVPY
T3 sequence (O75909 whole entry partner): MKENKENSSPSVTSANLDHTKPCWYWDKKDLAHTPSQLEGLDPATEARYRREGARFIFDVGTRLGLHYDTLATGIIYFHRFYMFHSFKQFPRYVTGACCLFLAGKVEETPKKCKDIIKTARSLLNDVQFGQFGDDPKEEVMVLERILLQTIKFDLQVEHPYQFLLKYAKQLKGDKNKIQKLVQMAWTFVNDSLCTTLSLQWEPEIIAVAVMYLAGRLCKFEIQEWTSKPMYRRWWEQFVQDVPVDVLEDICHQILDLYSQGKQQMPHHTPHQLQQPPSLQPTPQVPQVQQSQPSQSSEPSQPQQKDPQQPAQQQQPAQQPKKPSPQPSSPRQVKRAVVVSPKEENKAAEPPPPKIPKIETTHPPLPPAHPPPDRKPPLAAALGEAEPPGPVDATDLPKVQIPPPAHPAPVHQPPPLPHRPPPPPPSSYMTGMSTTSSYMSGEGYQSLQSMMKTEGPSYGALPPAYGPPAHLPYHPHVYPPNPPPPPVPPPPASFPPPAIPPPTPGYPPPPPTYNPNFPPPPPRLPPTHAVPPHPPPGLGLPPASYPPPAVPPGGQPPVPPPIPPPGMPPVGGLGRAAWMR
T2 sequence (Q9NYV4 with tags, fused parts or gaps): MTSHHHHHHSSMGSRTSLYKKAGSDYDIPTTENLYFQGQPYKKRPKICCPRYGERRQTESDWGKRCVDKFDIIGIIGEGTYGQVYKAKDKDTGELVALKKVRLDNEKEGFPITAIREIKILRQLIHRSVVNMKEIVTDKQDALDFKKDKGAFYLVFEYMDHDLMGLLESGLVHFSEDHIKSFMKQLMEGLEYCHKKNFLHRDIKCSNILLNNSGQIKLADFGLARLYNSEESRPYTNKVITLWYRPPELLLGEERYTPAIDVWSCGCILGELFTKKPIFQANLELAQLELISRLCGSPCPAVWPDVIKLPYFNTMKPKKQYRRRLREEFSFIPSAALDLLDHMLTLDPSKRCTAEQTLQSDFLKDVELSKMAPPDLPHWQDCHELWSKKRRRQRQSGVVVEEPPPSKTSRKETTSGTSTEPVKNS
T2 sequence (O75909 with tags, fused parts or gaps partner limits assumed): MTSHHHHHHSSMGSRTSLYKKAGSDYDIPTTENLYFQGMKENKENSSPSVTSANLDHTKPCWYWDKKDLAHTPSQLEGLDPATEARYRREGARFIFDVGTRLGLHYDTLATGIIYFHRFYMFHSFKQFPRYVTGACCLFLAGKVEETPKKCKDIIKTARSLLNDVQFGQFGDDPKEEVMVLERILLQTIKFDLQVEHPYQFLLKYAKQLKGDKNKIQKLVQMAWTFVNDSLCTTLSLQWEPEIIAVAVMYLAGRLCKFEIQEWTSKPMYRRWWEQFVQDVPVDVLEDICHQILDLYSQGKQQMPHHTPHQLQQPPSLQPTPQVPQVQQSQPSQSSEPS
T1 sequence (O75909 whole entry): as the sequence (O75909 whole entry partner) above
T1 sequence (Q9NYV4 whole entry partner): as the sequence (Q9NYV4 whole entry) above

DC50 (CYCLIN K): 3.46 nM
IC50 (CDK12/CyclinK): > 20000 nM
DC50 (CDK12; CAL-120 cells, 24 h, nuclear CDK12 staining intensity, median, read-out: CDK12 degradation IF DC50 - [mol/l] (median)): 83.4 nM
(IC50 CDK12 high ATP) to (Degradation DC50 CDK12) ratio (CDK12; ratio of IC50 CDK12 hATP (2 mM ATP) to DC50 CDK12 (IF, CAL-120)): >239
SMILES: CN1CCC(n2nc(NCc3nc4c(OC(F)(F)F)cccc4[nH]3)c3ncc(C4CC4)nc32)CC1 [Example 5, 6-cyclopropyl-1-(1-methylpiperidin-4-yl)-N-{[4-(trifluoromethoxy)-1H-benzimidazol-2-yl]methyl}-1H-pyrazolo[3,4-b]pyrazin-3-amine]
